{"source": "paper PMC10675597", "about": "“Design, Synthesis, and Antisickling Investigation of a Thiazolidine Prodrug of TD-7 That Prolongs the Duration of Action of Antisickling Aromatic Aldehyde” (Pharmaceutics, 2023)", "key": {"[1]": {"assay": "Solubility study of Pro-7 in solvents", "format": "physicochemical", "settings": "25 °C, 48 h", "description": "The solubility of Pro-7 was tested in water, ethanol, methanol, dichloromethane, chloroform, and acetone. An excess amount of the Pro-7 was added to a known volume of each solvent in a screw cap vial. Each vial was kept in a shaking water bath at 25 °C for 48 h. The content of each vial was filtered using an Acrodisc® syringe filter of […] (Port Washington, NY, USA), and the concentration of Pro-7 determined spectrophotometrically at 296 nm."}, "[2]": {"assay": "Drug solubility in SNEDDS formulation", "format": "physicochemical", "settings": "SNEDDS (oleic acid 15%, tween 80 10%, PEG 400 75%), 25 °C, 48 h", "description": "To determine the drug solubility in the prepared SNEDDS formulation, excess amount (approximately 300 mg) of Pro-7 was added to 4 mL of the prepared SNEDDS. The mixture was vortex and kept in a shaking water bath at 25 °C for 48 h, and then filtered using Acrodisc® syringe filter ([…]) and the concentration of Pro-7 determined spectrophotometrically at 296 nm."}, "[3]": {"assay": "In-vivo pharmacokinetic study in rat", "set-up": "species or system male Sprague Dawley rats", "description": "Investigations were carried out to examine the pharmacokinetic profiles of Pro-7, including the enteric-coated microspheres and the intravenous (IV) formulation using a one-period parallel design. The study design and conduct adhered to ethical guidelines and regulatory standards to ensure the welfare of the animals. The study was also conducted in strict adherence to internationally recognized guidelines for ethical research and regulatory standards. The principles of Good Clinical Practice (GCP), the guidelines set forth by the International Conference on Harmonization (ICH), and the rigorous standards of the European Medicines Agency (EMA) served as the framework for the study’s execution. The protocol for the animal study underwent a thorough evaluation and received formal approval from the Research Ethics Committee at the Faculty of Pharmacy, King Abdulaziz University, Saudi Arabia.\nMale Sprague Dawley rats, each with an average weight of 250 g were housed in a controlled facility with a 12-h light/dark cycle, at constant temperature of 25 °C, with continuous access to both food and water throughout the study. All animals were acclimated to standard housing for at least 7 days. The animals were separated into distinct groups (n = 5). Group I was treated with a single PO (50 mg/kg body weight) dose, while Group II was administered a single IV (25 mg/kg body weight) dose of Pro-7. Additional three control groups were included to validate and enhance the robustness of our findings. These include a normal control group without treatment, a control IV administration group that was administered non-medicated SNEDDS formulation, and a control oral administration group that was given non-medicated oral formulation.\nThe oral formulation was suspended in 1% aqueous carboxymethyl cellulose. Blood samples from the jugular vein, at 0.25 (for IV only), 0.5, 2, 4, 8, 10, 12, and 24 h were collected into EDTA tubes. To determine the concentration of TD-7 in the whole blood, aliquots (45 µL) of blood samples were mixed with 20 µL of warfarin (used as IS) in a concentration of 1 µg/mL and 500 µL of 1% formic acid in acetonitrile. The vials were centrifuged for 5 min at 10,000 rpm, and 2 µL of the resulting solution was analyzed by LC-MS/MS.\nThe concentration of both TD-7 and Pro-7 in the collected blood samples were quantified using LC–MS/MS method utilizing LLS/DMPK/005 Shimadzu-8045 LC-MS/MS instrument equipped with Lab solution 6.8 software. Linearity of the TD-7 and Pro-7 assay methods was verified within the concentration range 8.21–3776 and 20.4–9396 ng/mL, respectively. A regression coefficient (R^2) of more than 0.993 was obtained. The analytical method was validated in accordance with the FDA Bio-analytical Method Validation Guidelines 2003. Chromatographic separation was conducted on Atlantis C18 (4.6 × 50 mm, 3.5 µm) at 30 °C. The injection volume was 2 µL, the flow rate was adjusted at 0.7 mL/min, the total run time was 2.5 min, and the mobile phase consisted of 0.1% formic acid in acetonitrile:10 mM aqueous ammonium formate (70:30 v/v). The retention times for TD-7, Pro-7 and IS were 1.047, 1.178, and 1.503 min, respectively. The limit of quantification for TD-7 and Pro-7 was established at of 8.21 and 20.4, respectively.\nPharmacokinetic parameters were calculated using non-compartmental analysis with Kinetica TM (version 4, Thermo Electron Corporation, Waltham, MA, USA) software. The following parameters were determined: Maximum plasma concentration (Cmax), Elimination half-life (t½), Area under the plasma concentration-time curve from time 0 to the last measurable concentration (AUC0–t), Area under the plasma concentration-time curve from time 0 to infinity (AUC0–∞), Clearance (Cl), and Volume of distribution (Vd).\nThe t½ was determined as 0.693 divided by the elimination rate constant. […]"}, "[4]": {"set-up": "method as in PMID 34657559, PMID 9490025, PMID 10376886, PMID 11154732", "settings": "cited from earlier work"}, "sickling": {"tested_on": "sickling", "set-up": "method as in PMID 30289405", "settings": "cited from earlier work"}, "[5]": {"settings": "intravenous 25 mg/kg Pro-7, rat, blood, n = 5"}, "[6]": {"settings": "intravenous 25 mg/kg Pro-7, rat, n = 5"}, "[7]": {"settings": "oral 50 mg/kg Pro-7 (enteric-coated formulation), rat, blood, n = 5"}, "[8]": {"settings": "oral 50 mg/kg Pro-7 (enteric-coated formulation), rat, n = 5"}}, "data": [{"molecule": "1-(2-(3-((6-(hydroxymethyl)pyridin-2-yl)methoxy)-5 methoxyphenyl)thiazolidin-4-yl)propan-1-one [Pro-7]", "values": [{"measurement": "solubility", "setting": "[1]; acetone", "value": 11.64, "unit": "mg/mL"}, {"measurement": "solubility", "setting": "[1]; chloroform", "value": 66.43, "unit": "mg/mL"}, {"measurement": "solubility", "setting": "[1]; dichloromethane", "value": 54.89, "unit": "mg/mL"}, {"measurement": "solubility", "setting": "[1]; ethanol", "value": 85.98, "unit": "mg/mL"}, {"measurement": "solubility", "setting": "[1]; methanol", "value": 88.34, "unit": "mg/mL"}, {"measurement": "aqueous solubility", "setting": "[1]; water", "value": 0.165, "unit": "mg/mL"}, {"measurement": "solubility in the prepared SNEDDS formulation", "setting": "[2]", "value": 68.94, "unit": "mg/mL"}, {"measurement": "AUC0–t", "setting": "[3]; [5]", "value": "1830 ± 737", "unit": "ng·h/mL"}, {"measurement": "AUC0–∞", "setting": "[3]; [5]", "value": "1956 ± 792", "unit": "ng·h/mL"}, {"measurement": "Cmax", "setting": "[3]; [5]", "value": "1426 ± 926", "unit": "ng/mL"}, {"measurement": "t½", "setting": "[3]; [5]", "value": "4.98 ± 1.89", "unit": "h"}, {"measurement": "Cl", "setting": "[3]; [6]", "value": "238 ± 85.9", "unit": "mL/min/kg"}, {"measurement": "Vd", "setting": "[3]; [6]", "value": "98.9 ± 45.3", "unit": "L/kg"}, {"measurement": "AUC0–t", "setting": "[3]; [7]", "value": "672 ± 255", "unit": "ng·h/mL"}, {"measurement": "AUC0–∞", "setting": "[3]; [7]", "value": "730 ± 225", "unit": "ng·h/mL"}, {"measurement": "Cmax", "setting": "[3]; [7]", "value": "469 ± 322", "unit": "ng/mL"}, {"measurement": "Tmax", "setting": "[3]; [7]", "value": "0.5 ± 0.0", "unit": "h"}, {"measurement": "t½", "setting": "[3]; [7]", "value": "4.73 ± 1.22", "unit": "h"}, {"measurement": "Cl", "setting": "[3]; [8]", "value": "200.89 ± 34.3", "unit": "mL/min/kg"}, {"measurement": "Vd", "setting": "[3]; [8]", "value": "83.7 ± 22.1", "unit": "L/kg"}, {"measurement": "Fraction of drug absorbed (% F)", "setting": "[3]; oral 50 mg/kg vs intravenous 25 mg/kg, rat", "value": 18.4, "unit": "%"}]}, {"molecule": "COc1ccc(OCc2cccc(CO)n2)c(C=O)c1", "note": "[TD-7, 2-((6-(hydroxymethyl)pyridin-2-yl)methoxy)-5-methoxybenzaldehyde]", "values": [{"measurement": "oral bioavailability (in words)", "setting": "[4]", "value": "low oral bioavailability"}, {"measurement": "sickling inhibition potency over vanillin", "setting": "sickling", "value": "several fold"}]}]}
